Target: human Fpn-GFP fusion protein (Homo sapiens, UniProt Q9NP59)
Assay: cell-based
Conditions: not given
Source text: Growing HEK-293 #354 cells in doxycycline containing media induced expression of human Fpn-GFP fusion protein on the cell surface.

Chain of human Fpn-GFP fusion protein (Q9NP59 whole entry, the tested form may be a part): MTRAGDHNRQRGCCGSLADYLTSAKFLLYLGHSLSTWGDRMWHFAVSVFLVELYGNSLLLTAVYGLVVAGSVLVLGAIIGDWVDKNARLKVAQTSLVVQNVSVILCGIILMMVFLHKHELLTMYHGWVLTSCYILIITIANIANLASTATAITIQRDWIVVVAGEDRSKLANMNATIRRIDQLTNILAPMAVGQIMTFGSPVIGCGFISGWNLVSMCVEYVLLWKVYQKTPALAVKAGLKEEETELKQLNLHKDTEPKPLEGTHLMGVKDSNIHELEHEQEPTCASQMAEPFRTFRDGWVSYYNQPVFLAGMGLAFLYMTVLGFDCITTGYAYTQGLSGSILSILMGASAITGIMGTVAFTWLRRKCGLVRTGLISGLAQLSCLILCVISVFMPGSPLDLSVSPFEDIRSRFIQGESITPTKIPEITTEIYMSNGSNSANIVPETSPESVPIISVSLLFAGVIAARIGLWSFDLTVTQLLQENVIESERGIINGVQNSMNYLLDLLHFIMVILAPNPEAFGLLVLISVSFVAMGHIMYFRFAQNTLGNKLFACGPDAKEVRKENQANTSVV

`CC[C@H](C)[C@@H]1NC(=O)[C@@H](NC(=O)[C@@H](NC(=O)[C@@H]2CCCN2C(=O)[C@H](Cc2ccccc2)NC(=O)[C@H](Cc2c[nH]cn2)NC(=O)[C@@H](NC(=O)[C@@H](N)CC(=O)O)[C@@H](C)O)[C@@H](C)CC)CSSC[C@@H](C(=O)N[C@@H](CCCCN)C(=O)N[C@H](C(=O)O)[C@@H](C)O)NC(=O)[C@@H]2CSSC[C@@H]3NC(=O)[C@@H]4CSSC[C@H](NC(=O)[C@H](Cc5ccccc5)NC1=O)C(=O)N[C@@H](CSSC[C@H](NC(=O)[C@H](CCCCN)NC(=O)[C@H](CO)NC(=O)[C@H](CCCNC(=N)N)NC(=O)[C@H](Cc1c[nH]cn1)NC3=O)C(=O)NCC(=O)N[C@@H](CCSC)C(=O)N2)C(=O)NCC(=O)N4` [hepcidin] showed an EC50 of roughly 4 nM.

Target: human Fpn (Homo sapiens, UniProt Q9NP59)
Sequence (Q9NP59 whole entry): as the sequence (Q9NP59 whole entry, the tested form may be a part) above
Assay: biochemical
Conditions: not given
Protocol: This biophysical assay was developed to confirm inhibition of hepcidin binding to ferroportin (Fpn) more directly. Incubation of TMR-hepcidin with purified human Fpn isolated from Pichia pastoris yeast cells expressing human Fpn with a C-terminal FLAG affinity tag (Bonaccorsi di Patti, 2014) leads to increased fluorescence polarization (FP) of the TMR-hepcidin ligand.

In the case of `CC[C@H](C)[C@@H]1NC(=O)[C@@H](NC(=O)[C@@H](NC(=O)[C@@H]2CCCN2C(=O)[C@H](Cc2ccccc2)NC(=O)[C@H](Cc2c[nH]cn2)NC(=O)[C@@H](NC(=O)[C@@H](N)CC(=O)O)[C@@H](C)O)[C@@H](C)CC)CSSC[C@@H](C(=O)N[C@@H](CCCCN)C(=O)N[C@H](C(=O)O)[C@@H](C)O)NC(=O)[C@@H]2CSSC[C@@H]3NC(=O)[C@@H]4CSSC[C@H](NC(=O)[C@H](Cc5ccccc5)NC1=O)C(=O)N[C@@H](CSSC[C@H](NC(=O)[C@H](CCCCN)NC(=O)[C@H](CO)NC(=O)[C@H](CCCNC(=N)N)NC(=O)[C@H](Cc1c[nH]cn1)NC3=O)C(=O)NCC(=O)N[C@@H](CCSC)C(=O)N2)C(=O)NCC(=O)N4` [hepcidin], the IC50 is reported as roughly 370 nM.

Target: T1, ferroportin (Fpn) (Mus musculus, UniProt Q9JHI9)
T1 construct: endogenous in cells; host or cells: J774 mouse macrophage cell line, induced with Fe(III)NTA
T1 sequence (Q9JHI9 1-570): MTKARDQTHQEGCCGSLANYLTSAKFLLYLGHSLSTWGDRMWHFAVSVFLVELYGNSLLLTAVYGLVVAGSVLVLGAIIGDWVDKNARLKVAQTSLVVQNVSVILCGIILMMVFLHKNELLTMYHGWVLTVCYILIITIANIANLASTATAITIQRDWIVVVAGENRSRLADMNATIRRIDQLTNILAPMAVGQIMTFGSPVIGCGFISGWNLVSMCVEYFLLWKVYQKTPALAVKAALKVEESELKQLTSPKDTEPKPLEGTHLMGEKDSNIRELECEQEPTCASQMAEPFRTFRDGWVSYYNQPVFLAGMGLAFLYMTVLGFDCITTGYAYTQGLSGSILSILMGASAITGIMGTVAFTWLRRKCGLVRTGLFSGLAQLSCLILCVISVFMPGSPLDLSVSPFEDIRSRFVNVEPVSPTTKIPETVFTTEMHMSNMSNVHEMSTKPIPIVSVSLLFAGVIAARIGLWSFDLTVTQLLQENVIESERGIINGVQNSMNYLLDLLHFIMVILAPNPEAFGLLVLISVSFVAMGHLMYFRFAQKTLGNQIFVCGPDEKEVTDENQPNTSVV
Assay: Hepcidin Internalization Assay (J774)
Type: cell-based
Conditions: J774 cells, TMR-hepcidin 25 nM, 2 hours; read-out: IC 50, average (AVE) of multiple measurements, hepcidin internalization assay
Source text: This cellular assay allows quantification of the binding of hepcidin to ferroportin (Fpn) through microscopic detection of internalization of a fluorescently labeled hepcidin into J774 cells. […] Binding of hepcidin to Fpn triggers internalization and degradation of both hepcidin and Fpn. […] Therefore, microscopic detection of cell-associated TMR fluorescence is a measure of hepcidin binding to Fpn and internalization of hepcidin and Fpn. If TMR-hepcidin is prevented from binding to Fpn, cellular TMR fluorescence remains low (Dürrenberger et al, 2013). The effect of small molecular weight Fpn inhibitor compounds in this assay was evaluated in vitro as described below. […] Cat. 655090) and grown at 37° C. with 5% CO2. After overnight incubation, cells were washed 3 times with pre-warmed DMEM w/o phenol red, 30 μl/well of DMEM w/o phenol red was added after the final wash and 10 μl/well of dilution series of test compounds were added in triplicates. […] Cells were incubated in a total volume of 50 μl at 37° C. with 5% CO2 for 2 hours, then Hoechst 33342 dye was added to a final concentration of 0.5 μg/ml to stain nuclei and further incubated for 10 min. at 37° C. with 5% CO2. […] After removal of the paraformaldehyde solution, cells were washed 3 times with PBS leaving 100 μl per well and the plates were sealed with foil plate seal. […] The acquired image data was analysed with the […] analysis software. […] IC50 values were calculated with the Sum(Mean) raw data using “log(inhibitor) vs. response” curve fitting of Prism 5 software (GraphPad Software Inc., version 5.02). For each data set the fit of the “log(inhibitor) vs. response (three parameters)” model was compared to the fit of the “log(inhibitor) vs. response-Variable slope (four parameters)” model and the IC50 data of the preferred model was used.

In order of falling IC50:
1. O=C(NCc1ncccc1F)c1coc(CCNCc2nc3cnc4ccccc4c3[nH]2)n1 [compound 2, 2-(2-(((3H-imidazo[4,5-c]quinolin-2-yl)methyl)amino)ethyl)-N-((3-fluoropyridin-2-yl)methyl)oxazole-4-carboxamide]  350 nM
2. O=C(NCc1ncccc1F)c1coc(CCNCCc2nc3cccc(C#Cc4cccc(-c5ncco5)c4)c3[nH]2)n1 [compound 79]  84 nM
3. O=C(NCc1ncccc1Cl)c1coc(CCNCCc2nc3c(ccc4ccccc43)[nH]2)n1 [compound 14]  33 nM
4. COc1cccnc1CNC(=O)c1coc(CCNCCc2nc3cc4c(cc3[nH]2)OCCO4)n1 [compound 48]  26 nM
5. COc1cccnc1CNC(=O)c1coc(CCNCCc2nc3c4c(ccc3[nH]2)CCCC4)n1 [compound 50]  19 nM
6. COc1ccccc1-c1ccc2[nH]c(CCNCCc3nc(C(=O)NCc4ncccc4C)co3)nc2c1 [compound 49]  18 nM
7. Cc1cccc(-c2ccc3[nH]c(CCNCCc4nc(C(=O)NCc5ncccc5F)co4)nc3c2)c1 [compound 65]  15 nM
8. O=C(NCc1ncccc1F)c1coc(CCNCCc2nc3c(ccc4ccccc43)[nH]2)n1 [compound 5, 2-(2-((2-(3H-naphtho[1,2-d]imidazol-2-yl)ethyl)amino)ethyl)-N-((3-fluoropyridin-2-yl)methyl)oxazole-4-carboxamide]  13 nM
9. COc1ccc(-c2ccc3[nH]c(CCNCCc4nc(C(=O)NCc5ncccc5F)co4)nc3c2)cc1 [compound 64]  10 nM
10. COc1cccc(-c2ccc3[nH]c(CCNCCc4nc(C(=O)NCc5ncccc5F)co4)nc3c2)c1 [compound 63]  8 nM
11. O=C(NCc1ncccc1F)c1coc(CCNCCc2nc3cc(-c4ccccc4F)ccc3[nH]2)n1 [compound 46]  7 nM
12. COc1ccccc1-c1ccc2[nH]c(CCNCCc3nc(C(=O)NCc4ncccc4F)co3)nc2c1 [compound 45]  6 nM
13. COc1cccc(-c2ccc3[nH]c(CCNCCc4nc(C(=O)NCc5ncccc5F)co4)nc3c2)c1OC [compound 83]  6 nM
14. O=C(NCc1ncccc1Cl)c1coc(CCNCCc2nc3cc4c(cc3[nH]2)OCCO4)n1 [compound 55]  2 nM
15. O=C(NCc1ncccc1F)c1coc(CCNCCc2nc3cc(C#Cc4cccnc4)ccc3[nH]2)n1 [compound 73]  2 nM

— patent US20240239780A1, “MODIFIED FERROPORTIN INHIBITORS” (Vifor (International) AG, priority 2021, published 2024)
